From article PMC6556873, “Rapid Covalent-Probe Discovery by Electrophile-Fragment Screening” (Journal of the American Chemical Society, 2019)
Where two headings read alike, the source gives them in different places.

Assays:
BSA = molecular target: T1, BSA (Bos taurus, UniProt P02769); set-up: Intact protein LC/MS covalent labelling, fragments in pools of five, 200 uM each, 4 °C; details: 24 h, 4 °C, pool of five; 200 µM; covalent
T1 construct: gene ALB
Method: (§1) Incubations were performed at 200 μM for each compound and 2 μM of protein (10 μM for BSA) for 24 h at 4 °C with moderate shaking. Incubation buffers varied among proteins (PBS pH 7.4 for QSOX1 and BSA; 10 mM HEPES pH 7.5, 0.3 M NaCl, 0.5 mM TCEP for PCAF, UPS8, and NUDT7; […]; 10 mM Na2HPO4 pH 7.5 100 mM NaCl 5 mM β-mercaptoethanol for NV3CP; 20 mM Na phosphate pH 7.5 for NNMT; […]. The reaction was stopped by quenching with formic acid, 0.4% final concentration. Each protein was incubated with the electrophilic library in pools of five compounds per well. The pool’s composition maximized the difference in mass between fragments in the same well. Incubations were performed with each fragment at 200 μM, for 24 h at 4 °C, to allow the screening of proteins that are not stable for long time periods at higher temperatures. Following incubation, we used intact protein [compound left out] chromatography/mass spectrometry (LC/MS) to identify the fragments and quantify their labeling (Figure 3A). […] There was good agreement between the percent of labeling of NUDT7 by 100 random individual compounds and that obtained in pools of five (R^2=0.78; Figure S6 and Data set 2 in the Supporting Information).

OTUB2 (OTUB2A) = molecular target: T2, OTUB2 (OTUB2A) (Homo sapiens, UniProt Q96DC9); set-up: Intact protein LC/MS covalent labelling, fragments in pools of five, 200 uM each, 4 °C; details: 24 h, 4 °C, pool of five; 200 µM; covalent
T2 construct: full length residues 1-234, E. coli BL21(DE3)-R3, His tag removed by TEV, construct 27312 Da
T2 sequence (Q96DC9 1-234): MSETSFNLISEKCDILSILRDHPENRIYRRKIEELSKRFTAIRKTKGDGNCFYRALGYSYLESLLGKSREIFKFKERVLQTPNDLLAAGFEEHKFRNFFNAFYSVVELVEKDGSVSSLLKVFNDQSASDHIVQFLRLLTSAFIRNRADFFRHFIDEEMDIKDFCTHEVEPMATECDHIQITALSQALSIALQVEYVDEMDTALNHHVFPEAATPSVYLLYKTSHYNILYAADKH
Method: as §1

PCAF = molecular target: T3, PCAF (Homo sapiens, UniProt Q92831); set-up: Intact protein LC/MS covalent labelling, fragments in pools of five, 200 uM each, 4 °C; details: 24 h, 4 °C, pool of five; 200 µM; covalent
T3 construct: gene KAT2B
T3 sequence (Q92831 whole entry, the tested form may be a part): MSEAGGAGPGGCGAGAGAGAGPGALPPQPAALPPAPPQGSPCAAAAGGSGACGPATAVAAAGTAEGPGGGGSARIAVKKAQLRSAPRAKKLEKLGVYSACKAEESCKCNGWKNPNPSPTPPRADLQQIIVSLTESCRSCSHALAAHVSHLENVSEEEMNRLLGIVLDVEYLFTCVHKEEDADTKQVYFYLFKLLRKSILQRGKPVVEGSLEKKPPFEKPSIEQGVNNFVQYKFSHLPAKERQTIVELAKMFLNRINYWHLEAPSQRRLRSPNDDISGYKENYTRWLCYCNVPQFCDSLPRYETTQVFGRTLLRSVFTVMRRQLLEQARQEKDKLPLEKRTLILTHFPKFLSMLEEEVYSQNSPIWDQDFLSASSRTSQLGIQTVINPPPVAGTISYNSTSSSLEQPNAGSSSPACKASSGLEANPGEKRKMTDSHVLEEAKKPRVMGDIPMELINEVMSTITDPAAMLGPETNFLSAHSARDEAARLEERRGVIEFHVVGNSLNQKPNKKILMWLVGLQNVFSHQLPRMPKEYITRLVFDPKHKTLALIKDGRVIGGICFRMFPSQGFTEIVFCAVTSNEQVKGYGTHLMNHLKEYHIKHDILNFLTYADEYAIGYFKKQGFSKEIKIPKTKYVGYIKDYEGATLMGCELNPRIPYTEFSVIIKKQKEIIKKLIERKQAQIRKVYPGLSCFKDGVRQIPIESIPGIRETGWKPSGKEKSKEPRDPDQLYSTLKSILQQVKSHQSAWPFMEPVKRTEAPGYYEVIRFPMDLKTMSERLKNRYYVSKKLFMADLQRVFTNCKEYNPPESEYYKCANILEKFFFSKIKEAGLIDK
Method: as §1

in vitro [1] = test: in vitro; set-up: species or system HB2, HEK293; details: human, ccd841 cells
in vitro [2] = test: in vitro; set-up: species or system CCD841, HEK293; details: human, hb2 cells, read-out: HB-2 Cells Viability (%)
in vitro [3] = test: in vitro; set-up: species or system HB2, CCD841; details: human, hek293 cells
NUDT7 = molecular target: T4, NUDT7 (Homo sapiens, UniProt P0C024); set-up: Intact protein LC/MS covalent labelling, fragments in pools of five, 200 uM each, 4 °C; details: 24 h, 4 °C, pool of five; 200 µM; covalent
T4 construct: residues 14-235, E. coli, pNIC28-Bsa4, N-terminal His6 tag removed by TEV, construct 26672 Da
T4 sequence (P0C024 14-235): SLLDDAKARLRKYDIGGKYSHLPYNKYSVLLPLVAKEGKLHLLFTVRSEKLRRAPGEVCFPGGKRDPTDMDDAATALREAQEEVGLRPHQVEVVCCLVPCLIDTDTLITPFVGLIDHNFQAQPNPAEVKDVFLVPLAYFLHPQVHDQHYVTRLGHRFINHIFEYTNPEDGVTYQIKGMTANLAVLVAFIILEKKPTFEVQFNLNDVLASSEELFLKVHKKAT
Method: as §1

T1 sequence (P02769 whole entry, the tested form may be a part): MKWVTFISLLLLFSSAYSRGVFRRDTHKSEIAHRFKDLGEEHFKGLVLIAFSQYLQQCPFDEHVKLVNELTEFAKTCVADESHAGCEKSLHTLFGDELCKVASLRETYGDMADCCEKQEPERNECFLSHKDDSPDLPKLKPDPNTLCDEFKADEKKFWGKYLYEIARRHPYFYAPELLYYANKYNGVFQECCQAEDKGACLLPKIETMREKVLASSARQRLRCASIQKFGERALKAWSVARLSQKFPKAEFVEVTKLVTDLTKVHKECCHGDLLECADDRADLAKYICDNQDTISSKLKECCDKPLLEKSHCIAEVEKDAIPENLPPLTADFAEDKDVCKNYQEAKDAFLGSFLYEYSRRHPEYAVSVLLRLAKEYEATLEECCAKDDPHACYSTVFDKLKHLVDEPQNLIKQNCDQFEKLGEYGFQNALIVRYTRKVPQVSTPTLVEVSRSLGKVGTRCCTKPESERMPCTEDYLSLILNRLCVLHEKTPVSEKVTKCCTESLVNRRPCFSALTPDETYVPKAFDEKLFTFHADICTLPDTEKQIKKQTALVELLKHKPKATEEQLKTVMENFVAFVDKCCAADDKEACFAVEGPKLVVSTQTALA

Row | Compound | BSA (BSA) | OTUB2 (OTUB2 (OTUB2A)) | PCAF (PCAF) | viability at 48 h, 10 µM (in vitro [1]) [%] | viability at 48 h, 10 µM (in vitro [2]) [%] | viability at 48 h, 10 µM (in vitro [3]) [%] | NUDT7 (NUDT7)
1 | O=C(CCl)NC1CCC2(CC1)OCCO2 [PCM-0102820] | 0 | 0.13 | 0 | 96.8 | 107 | 111 | 
2 | O=C(CCl)NCc1ccccc1 [PCM-0102538] | 0 | 0.28 | 0 |  |  |  | 0
3 | C=CC(=O)N1CCCC(Cn2ccnn2)C1 (stereo not drawn) [PCM-0102647] | 0 | 0.09 | 0 | 102 | 101 | 102 | 
4 | C=CC(=O)NCc1ccc2cnn(C)c2c1 [PCM-0102947] | 0 | 0 | 0 |  |  |  | 0
5 | Cc1ccccc1CN1CCCN(C(=O)CCl)CC1.Cl [PCM-0102911] | 0 | 0 | 0 |  |  |  | 0
6 | C=CC(=O)N1CCc2ncsc2C1 [PCM-0102847] | 0 | 0 | 0 |  |  |  | 0
7 | C=CC(=O)Nc1cc(C)on1 [PCM-0102805] | 0 | 0 | 0 |  |  |  | 0
8 | C=CC(=O)N1CCCC(c2cnn(C)c2)C1 (stereo not drawn) [PCM-0102641] | 0 | 0 | 0 | 115 | 107 | 81.4 | 
9 | COc1cc2c(cc1OC)CN(C(=O)CCl)CC2 [PCM-0102317] | 0 | 0.14 | 0 |  |  |  | 0.1
10 | O=C(CCl)N1CCC2CCCCC2C1 (stereo not drawn) [PCM-0102474] | 0 | 0 | 0 | 54.4 | 24.3 | 15.3 | 
11 | C=CC(=O)Nc1nc(-c2ccc(O)cc2)cs1 [PCM-0102884] | 0 | 0 | 0 | 80 | 75.2 | 65.4 | 
12 | O=C(CCl)N1N=C(c2ccco2)CC1c1cccs1 (stereo not drawn) [PCM-0102182] | 0 | 0 | 0 | 18.2 | 14.9 | 2 | 
13 | C=CC(=O)Nc1ccc(OC)cc1 [PCM-0103034] | 0 | 0 | 0 |  |  |  | 0
14 | C=CC(=O)NC(C)(C)c1cc(C(F)(F)F)on1 [PCM-0102528] | 0 | 0 | 0 | 109 | 99.9 | 104 | 
15 | O=C(CCl)NCC#Cc1ccccc1 [PCM-0103007] | 0 | 0.6 | 0 | 84.1 | 78.1 | 59.4 | 
16 | O=C(CCl)N(C1CC1)C1CCCc2ccccc21 (stereo not drawn) [PCM-0102774] | 0 | 0 | 0 | 5.8 | 5.8 | 4 | 
17 | C=CC(=O)N=C1N=C2C=CC(I)=CN2Cc2ccccc21 [PCM-0102846] |  | 0 | 0 | 87.7 | 92.6 | 76.9 | 
18 | Cc1cc(SC#N)ccc1NC(=O)CCl [PCM-0102508] | 0 | 0 | 0 | 19.6 | 14.1 | 27.8 | 
19 | O=C(CCl)Nc1nncs1 [PCM-0102427] | 0 | 0 | 0 | 91 | 89.6 | 99.2 | 
20 | C=CC(=O)N1C2CCC1CC(O)(Cc1ccc(F)cc1F)C2 (stereo not drawn) [PCM-0102642] | 0 | 0 | 0 | 103 | 102 | 92.5 | 
21 | CN(Cc1cccc(Cl)c1)C(=O)CCl [PCM-0102976] | 0 | 0 | 0 | 67.9 | 18.9 | 31.2 | 
22 | CC(NC(=O)CCl)C(=O)O (stereo not drawn) [PCM-0102990] | 0 |  | 0 | 115 | 102 | 103 | 0
23 | O=C(CCl)N1CCc2[nH]c3ccccc3c2C1 [PCM-0102591] | 0 |  | 0 | 61.8 | 7.3 | 7.5 | 0.22
24 | CC(=O)c1sc2nc(C)cc(C)c2c1NC(=O)CCl [PCM-0102108] | 0 |  | 0 | 99 | 103 | 101 | 0
25 | COc1ccc(C(=O)NNC(=O)CCl)cc1 [PCM-0102115] | 0 |  | 0 | 81.5 | 91.7 | 79.4 | 0.11
26 | Cc1nc(NC(=O)CCl)sc1C [PCM-0102124] | 0 | 0 | 0 | 66.1 | 47.2 | 32.2 | 
27 | O=C(CCl)Nc1ccccc1O [PCM-0102907] | 0 |  | 0 | 95.4 | 106 | 80.8 | 0.36
